Measured values published in ChEMBL document CHEMBL3046319, “PCR-RFLP detection of the E198A mutation conferring resistance to benzimidazoles in field isolates of Monilinia laxa from Greece” (Crop Prot, 2012).
In brackets after ≈: the same amount, converted by molar mass. Activity calls are given as the source filed them. No cut-off for these calls is given here.

Legend:
[1] = system: Monilinia laxa; experiment: Fungicidal activity against Monilinia laxa isolate MLP2 assessed as virulence in prune fruits assessed as virulence treated 10 min prior to mycelial inoculation at 24 degC after 10 days relative to isolate MLX1by pathogenicity bioassay; format: functional
[2] = system: Monilinia laxa; experiment: Fungicidal activity against Monilinia laxa isolate KX5 assessed as reduction in mycelial growth rate at 1 to 10 ug/ml at 31 degC after 5 days; format: functional, organism-based
[3] = system: Monilinia laxa; experiment: Fungicidal activity against Monilinia laxa isolate MLK1 assessed as reduction in mycelial growth rate at 25 degC after 4 days; format: functional, organism-based; conditions: isolate MLK1, 96 h
[4] = system: Monilinia laxa; experiment: Fungicidal activity against Monilinia laxa isolate MLP4 assessed as mycelial growth at 1 ug/ml at 25 degC after 4 days; format: functional
[5] = system: Monilinia laxa; experiment: Fungicidal activity against Monilinia laxa isolate MLK5 assessed as reduction in mycelial growth rate at 25 degC after 4 days; format: functional, organism-based; conditions: isolate MLK5, 96 h
[6] = system: Monilinia laxa; experiment: Fungicidal activity against Monilinia laxa isolate MLBO2 assessed as reduction in mycelial growth rate at 25 degC after 4 days; format: functional, organism-based; conditions: isolate MLBO2, 96 h
[7] = system: Monilinia laxa; experiment: Fungicidal activity against Monilinia laxa isolate KX2 assessed as reduction in mycelial growth rate at 25 degC after 4 days; format: functional, organism-based; conditions: isolate KX2, 96 h
[8] = system: Monilinia laxa; experiment: Fungicidal activity against Monilinia laxa isolate MLK8 assessed as reduction in mycelial growth rate at 25 degC after 4 days; format: functional, organism-based; conditions: isolate MLK8, 96 h
[9] = system: Monilinia laxa; experiment: Fungicidal activity against Monilinia laxa isolate MLNS1 assessed as reduction in mycelial growth rate at 1 to 10 ug/ml at 28 degC after 8 days; format: functional, organism-based
[10] = system: Monilinia laxa; experiment: Fungicidal activity against Monilinia laxa isolate MLK2 assessed as reduction in mycelial growth rate at 1 to 10 ug/ml at 25 to 28 degC; format: functional, organism-based
[11] = system: Monilinia laxa; experiment: Fungicidal activity against Monilinia laxa isolate MLX5 assessed as reduction in mycelial growth rate at 25 degC after 4 days; format: functional, organism-based; conditions: isolate MLX5, 96 h
[12] = system: Monilinia laxa; experiment: Fungicidal activity against Monilinia laxa isolate KX5 assessed as reduction in mycelial growth rate at 1 to 10 ug/ml at 25 to 28 degC; format: functional, organism-based
[13] = system: Monilinia laxa; experiment: Fungicidal activity against Monilinia laxa isolate MLG1 assessed as mean mycelial colony diameter at 25 degC after 4 days; format: functional
[14] = system: Monilinia laxa; experiment: Fungicidal activity against Monilinia laxa isolate MLBO5 assessed as reduction in mycelial growth rate at 25 degC after 4 days; format: functional, organism-based; conditions: isolate MLBO5, 96 h
[15] = system: Monilinia laxa; experiment: Fungicidal activity against Monilinia laxa isolate MLA1 assessed as mycelial growth at 1 ug/ml at 25 degC after 4 days; format: functional
[16] = system: Monilinia laxa; experiment: Fungicidal activity against Monilinia laxa isolate MLC2 assessed as mean number of conidia produced in the colony at 25 degC after 12 days by haemocytometer; format: functional
[17] = system: Monilinia laxa; experiment: Fungicidal activity against Monilinia laxa isolate MLBO3 assessed as reduction in mycelial growth rate at 25 degC after 4 days; format: functional, organism-based; conditions: isolate MLBO3, 96 h
[18] = system: Monilinia laxa; experiment: Fungicidal activity against Monilinia laxa isolate MLK6 assessed as reduction in mycelial growth rate at 1 to 10 ug/ml at 31 degC after 5 days; format: functional, organism-based
[19] = system: Monilinia laxa; experiment: Fungicidal activity against Monilinia laxa isolate MLA1 assessed as virulence in prune fruits assessed as virulence treated 10 min prior to mycelial inoculation at 24 degC after 10 days relative to isolate MLX1by pathogenicity bioassay; format: functional
[20] = system: Monilinia laxa; experiment: Fungicidal activity against Monilinia laxa isolate MLG3 assessed as reduction in mycelial growth rate at 25 degC after 4 days; format: functional, organism-based; conditions: isolate MLG3, 96 h
[21] = system: Monilinia laxa; experiment: Fungicidal activity against Monilinia laxa isolate MLK4A assessed as reduction in mycelial growth rate at 1 to 10 ug/ml at 31 degC after 5 days; format: functional, organism-based
[22] = system: Monilinia laxa; experiment: Fungicidal activity against Monilinia laxa isolate MLX2 assessed as reduction in mycelial growth rate at 1 to 10 ug/ml at 31 degC after 5 days; format: functional, organism-based
[23] = system: Monilinia laxa; experiment: Fungicidal activity against Monilinia laxa isolate KX4 assessed as reduction in mycelial growth rate at 1 to 10 ug/ml at 25 to 28 degC; format: functional, organism-based
[24] = system: Monilinia laxa; experiment: Fungicidal activity against Monilinia laxa isolate MLK12 assessed as mycelial growth at 1 ug/ml at 25 degC after 4 days; format: functional
[25] = system: Monilinia laxa; experiment: Fungicidal activity against Monilinia laxa isolate MLA1 assessed as reduction in mycelial growth rate at 25 degC after 4 days; format: functional, organism-based; conditions: isolate MLA1, 96 h
[26] = system: Monilinia laxa; experiment: Fungicidal activity against Monilinia laxa isolate MLNS2 assessed as reduction in mycelial growth rate at 1 to 10 ug/ml at 31 degC after 5 days; format: functional, organism-based
[27] = system: Monilinia laxa; experiment: Fungicidal activity against Monilinia laxa isolate MLG7 assessed as reduction in mycelial growth rate at 1 to 10 ug/ml at 31 degC after 5 days; format: functional, organism-based
[28] = system: Monilinia laxa; experiment: Fungicidal activity against Monilinia laxa isolate MLBO5 assessed as mycelial growth at 1 ug/ml at 25 degC after 4 days; format: functional
[29] = system: Monilinia laxa; experiment: Fungicidal activity against Monilinia laxa isolate KX4 assessed as reduction in mycelial growth rate at 1 to 10 ug/ml at 31 degC after 5 days; format: functional, organism-based
[30] = system: Monilinia laxa; experiment: Fungicidal activity against Monilinia laxa isolate MLG4 assessed as reduction in mycelial growth rate at 25 degC after 4 days; format: functional, organism-based; conditions: isolate MLG4, 96 h
[31] = system: Monilinia laxa; experiment: Fungicidal activity against Monilinia laxa isolate MLK4 assessed as reduction in mycelial growth rate at 1 to 10 ug/ml at 31 degC after 5 days; format: functional, organism-based
[32] = system: Monilinia laxa; experiment: Fungicidal activity against Monilinia laxa isolate MLB1 assessed as reduction in mycelial growth rate at 1 to 10 ug/ml at 25 to 28 degC; format: functional, organism-based
[33] = system: Monilinia laxa; experiment: Fungicidal activity against Monilinia laxa isolate MLC4 assessed as reduction in mycelial growth rate at 25 degC after 4 days; format: functional, organism-based; conditions: isolate MLC4, 96 h
[34] = system: Monilinia laxa; experiment: Fungicidal activity against Monilinia laxa isolate MLBO8 assessed as reduction in mycelial growth rate at 25 degC after 4 days; format: functional, organism-based; conditions: isolate MLBO8, 96 h
[35] = system: Monilinia laxa; experiment: Fungicidal activity against Monilinia laxa isolate MLK1 assessed as reduction in mycelial growth rate at 1 to 10 ug/ml at 28 degC after 8 days; format: functional, organism-based
[36] = system: Monilinia laxa; experiment: Fungicidal activity against Monilinia laxa isolate MLK2 assessed as reduction in mycelial growth rate at 25 degC after 4 days; format: functional, organism-based; conditions: isolate MLK2, 96 h
[37] = system: Monilinia laxa; experiment: Fungicidal activity against Monilinia laxa isolate MLAl8 assessed as reduction in mycelial growth rate at 25 degC after 4 days; format: functional, organism-based; conditions: isolate MLAl8, 96 h
[38] = system: Monilinia laxa; experiment: Fungicidal activity against Monilinia laxa isolate MLBO6 assessed as reduction in mycelial growth rate at 1 to 10 ug/ml at 31 degC after 5 days; format: functional, organism-based
[39] = system: Monilinia laxa; experiment: Fungicidal activity against Monilinia laxa isolate MLC3 assessed as reduction in mycelial growth rate at 1 to 10 ug/ml at 25 to 28 degC; format: functional, organism-based
[40] = system: Monilinia laxa; experiment: Fungicidal activity against Monilinia laxa isolate MLBO2 assessed as mean mycelial colony diameter at 25 degC after 4 days; format: functional
[41] = system: Monilinia laxa; experiment: Fungicidal activity against Monilinia laxa isolate MLP7 assessed as reduction in mycelial growth rate at 1 to 10 ug/ml at 28 degC after 8 days; format: functional, organism-based
[42] = system: Monilinia laxa; experiment: Fungicidal activity against Monilinia laxa isolate MLK5 assessed as reduction in mycelial growth rate at 1 to 10 ug/ml at 28 degC after 8 days; format: functional, organism-based

SMILES: COC(=O)Nc1nc2ccccc2[nH]1 [CARBENDAZIM]
- Activity [1]: 87.37%
- inhibition [2]: Active
- EC50 [3]: > 50 µg/mL
- Activity [4]: 94.44%
- EC50 [5]: > 50 µg/mL
- EC50 [6]: 0.18 µg/mL (≈ 0.941 µM)
- EC50 [7]: 0.08 µg/mL (≈ 0.418 µM)
- EC50 [8]: 0.09 µg/mL (≈ 0.471 µM)
- inhibition [9]: inactive
- inhibition [10]: inactive
- EC50 [11]: > 50 µg/mL
- inhibition [12]: inactive
- Activity [13]: 25.55 mm
- EC50 [14]: 0.07 µg/mL (≈ 0.366 µM)
- Activity [15]: 0%
- Activity [16]: 5 /cm2
- EC50 [17]: 0.05 µg/mL (≈ 0.262 µM)
- inhibition [18]: Active
- Activity [19]: 90.33%
- EC50 [20]: 0.08 µg/mL (≈ 0.418 µM)
- inhibition [21]: Active
- inhibition [22]: Active
- inhibition [23]: inactive
- Activity [24]: 95.82%
- EC50 [25]: 0.06 µg/mL (≈ 0.314 µM)
- inhibition [26]: Active
- inhibition [27]: Active
- Activity [28]: 0%
- inhibition [29]: Active
- EC50 [30]: 0.11 µg/mL (≈ 0.575 µM)
- inhibition [31]: Active
- inhibition [32]: inactive
- EC50 [33]: 0.09 µg/mL (≈ 0.471 µM)
- EC50 [34]: 0.06 µg/mL (≈ 0.314 µM)
- inhibition [35]: inactive
- EC50 [36]: > 50 µg/mL
- EC50 [37]: > 50 µg/mL
- inhibition [38]: Active
- inhibition [39]: inactive
- Activity [40]: 30.2 mm
- inhibition [41]: inactive
- inhibition [42]: inactive
